Experimental data from article PMC6591397, “Functional Roles of Metabolic Intermediates in Regulating the Human Mitochondrial NAD(P)^+-Dependent Malic Enzyme” (Scientific Reports, 2019).
Where “and” joins values, the source holds several entries; their conditions need not be identical. Equal entries are not always repeated. Structures can show the parent of a compound that is named as a salt.

Assays:
[1] = target: T1, human m-NAD(P)-ME WT (Homo sapiens, UniProt P23368); assay: ATP/ADP inhibition of enzyme activity; assay type: biochemical
T1 construct: made in house; host or cells: E. coli BL21 (pRH281 vector, trp promoter)
T1 sequence (P23368 19-584): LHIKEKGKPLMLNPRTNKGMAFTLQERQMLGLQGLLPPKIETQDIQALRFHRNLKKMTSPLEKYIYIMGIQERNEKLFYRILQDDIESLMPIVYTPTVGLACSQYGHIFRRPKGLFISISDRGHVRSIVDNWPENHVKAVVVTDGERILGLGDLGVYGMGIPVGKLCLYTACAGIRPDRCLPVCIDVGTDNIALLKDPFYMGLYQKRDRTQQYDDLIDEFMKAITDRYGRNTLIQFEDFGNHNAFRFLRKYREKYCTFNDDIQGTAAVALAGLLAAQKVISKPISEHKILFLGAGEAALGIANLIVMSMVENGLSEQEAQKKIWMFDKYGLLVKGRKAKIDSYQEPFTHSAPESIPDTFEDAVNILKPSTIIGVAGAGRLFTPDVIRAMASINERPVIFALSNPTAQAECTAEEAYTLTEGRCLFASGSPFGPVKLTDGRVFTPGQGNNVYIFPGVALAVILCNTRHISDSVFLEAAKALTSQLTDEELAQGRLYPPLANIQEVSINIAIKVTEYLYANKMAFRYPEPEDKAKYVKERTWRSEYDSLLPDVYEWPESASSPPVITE
Description: (§1) The ME reaction was measured with the production rate of NADH or NADPH via the absorbance at 340 nm. The reaction mixture in a saturated condition included 1 mM NAD(P)^+, 40 mM malate, and 10 mM MgCl2 in 50 mM Tris-HCl (pH 7.4). To determine the Km and kcat values, the concentration of one substrate was varied around its Km values while the concentrations of the other components were fixed at saturated concentrations.
C is the slope of the curve at its midpoint. […] All of the calculations were performed using the Sigma Plot 10.0 software program (Jandel Scientific, San Rafael, CA, USA).

[2] = target: T2, m-NAD(P)-ME (Homo sapiens, UniProt P23368); assay: Fumarate titration, activation of enzyme activity; assay type: biochemical; conditions: WT; 15 mM L-malate, 10 mM MgCl2, 1 mM NAD+, pH 7.4; fumarate 0 to 6 mM
T2 construct: made in house; host or cells: E. coli BL21 (pRH281 vector, trp promoter)
T2 sequence (P23368 19-584): as above
Description: as §1
Figure S2. Fumarate activating effect on human m-NAD(P)-ME WT and the exosite mutants.

SMILES | IC50 [1] | maximal activation of the enzyme by fumarate [2]
Nc1ncnc2c1ncn2[C@@H]1O[C@H](COP(=O)(O)OP(=O)(O)O)[C@@H](O)[C@H]1O [ADP] | 3.74 mM and 3.7 mM | 
O=C(O)/C=C/C(=O)O [FUM, fumarate] |  | approximately 2 fold
